# Source: patent US4810636A, “Chromogenic acridinone enzyme substrates” (Miles Inc., priority 1987, dated 1989)
# Where “and” joins values, the source holds several entries; their conditions need not be identical. Equal entries are not always repeated.
# Key:
# alkaline phosphatase = assay: Hydrolysis of the phosphate substrate by alkaline phosphatase (KM, Kcat); assay type: biochemical; details: 1.0M diethanolamine buffer (pH=9.8) containing 5.0 mM MgCl2
# β-D-galactosidase [1] = target: T1, β-D-galactosidase (Escherichia coli, UniProt P00722); assay: Hydrolysis of the galactoside substrate by β-D-galactosidase (Kcat, Km); assay type: biochemical; details: 50 mM phosphate buffered solution (pH 7.4) containing 5 mM MgCl2
# Text: (§1) According to a preferred embodiment of the present invention, chromogenic enzyme substrate compounds of the general formula (8), where Y is a radical of an enzyme-specific sugar moiety Y--OH, preferably β-D-galactose or β-D-glucose, and R and R' are methyl, can be prepared by reacting the dimethyl chromogen (20) with a 1-halogeno-derivative of the enzyme-specific moiety, preferably a 1-bromo-derivative thereof, substituted at the hydroxy-positions thereof with protecting groups, preferably acetate protecting groups, to result in per-O-substituted derivatives which can be hydrolyzed to remove such protecting groups to obtain the desired chromogenic enzyme substrate compound. For example, the β-D-galactoside of (20), the chromogenic enzyme substrate (8) where Y is the radical of β-D-galactose and R and R' are methyl, can be prepared for use in the determination of β-D-galactosidase. In particular, the dimethyl acridinone chromogen (20), where R and R' are methyl in the general formula (2), is reacted with acetobromogalactose and silver oxide in ethyl acetate/quinoline to prepare the 7-(tetra-O-acetyl-β-D-galactopyranosyloxy)-9,9-dimethyl-9H-acridin-2-one (31) of the formula: [drawing 13] […] The resulting galactoside (32) has an absorbance (λmax) of 438 nm (yellow), an extinction coefficient of 27,400, and is soluble in a phosphate buffered solution (pH 7.4).
# [2] = Visible absorbance (λmax, extinction coefficient) of substrate and chromogen; assay type: physicochemical; details: for absorbance (λmax): uncleaved substrate or protonated chromogen
# Text: According to a preferred embodiment of the present invention, chromogenic enzyme substrate compounds of the general formula (8), where Y is a radical of an enzyme-specific sugar moiety Y--OH, preferably β-D-galactose or β-D-glucose, and R and R' are methyl, can be prepared by reacting the dimethyl chromogen (20) with a 1-halogeno-derivative of the enzyme-specific moiety, preferably a 1-bromo-derivative thereof, substituted at the hydroxy-positions thereof with protecting groups, preferably acetate protecting groups, to result in per-O-substituted derivatives which can be hydrolyzed to remove such protecting groups to obtain the desired chromogenic enzyme substrate compound. For example, the β-D-galactoside of (20), the chromogenic enzyme substrate (8) where Y is the radical of β-D-galactose and R and R' are methyl, can be prepared for use in the determination of β-D-galactosidase. In particular, the dimethyl acridinone chromogen (20), where R and R' are methyl in the general formula (2), is reacted with acetobromogalactose and silver oxide in ethyl acetate/quinoline to prepare the 7-(tetra-O-acetyl-β-D-galactopyranosyloxy)-9,9-dimethyl-9H-acridin-2-one (31) of the formula: [drawing 13] The acetate protecting groups of (31) are then hydrolyzed with sodium methoxide in methanol to result in the desired 7-β-D-galactopyranosyloxy-9,9-dimethyl-9H-acridin-2-one (32) of the present invention of the formula: [drawing 14] The resulting galactoside (32) has an absorbance (λmax) of 438 nm (yellow), an extinction coefficient of 27,400, and is soluble in a phosphate buffered solution (pH 7.4).
# (§2) (C), 2462 (1970), where R and R' in the general formula (2) are methyl.
# [3] = Solubility and stability in aqueous buffered / basic solution; assay type: physicochemical
# Text: as §1, with “7.4). […]” for “7.4).”
# β-D-galactosidase [4] = target: T1, β-D-galactosidase; assay: Analytical test device for β-D-galactosidase, reflectance dose response; assay type: biochemical; details: 0.02-0.20 ng/ml β-D-galactosidase, reflectance at 630 nm after 50-70 seconds
# Method: A 2 inch wide×2 inch long sheet of Whatman 54 filter paper (Whatman, Inc., Clifton, N.J., U.S.A.) was immersed in an aqueous solution comprising 0.3M bicine buffer (pH 7.9) and 4.0 mM MgCl2 and air-dried overnight at room temperature. The filter paper was then immersed in a methanol solution containing 15 mM of the substrate product (32) from Example 3 and air-dried for one hour at room temperature to obtain a filter paper which was yellow in color.
# A 0.5 cm wide×1.0 cm long segment of the above-described impregnated yellow filter paper was mounted onto and along the edge of one surface of a 0.5 cm×8.125 cm polystyrene support (Tricite®, Dow Chemical Co., Midland, Mich., U.S.A.) previously laminated with a 2 mm strip of Double Stick® double-faced adhesive tape (3M Company, St. Paul, Minn., U.S.A.) for use as an analytical test device for the detection of β-D-galactosidase from a liquid test sample.
# Ten analytical test devices were prepared according to Example 4 and employed to determine the dose response of the substrate product compound (32) of the present invention to β-D-galactosidase.
# […] aqueous test sample solutions containing β-D-galactosidase concentrations of 0.02 ng/ml, 0.04 ng/ml, 0.06 ng/ml, 0.08 ng/ml, 0.12 ng/ml, 0.14 ng/ml, 0.16 ng/ml, 0.18 ng/ml and 0.20 ng/ml were prepared and an analytical test device dipped into each.
# [5] = Phenolic pKa of the chromogen; assay type: physicochemical
# Text: as §2
# α-amylase [6] = assay: Liquid analytical test system for the detection of α-amylase; assay type: biochemical; details: for Absorbance (634 nm): 37° C.; for Absorbance/Minute: average of three consecutive readings between 3 and 6 minutes
# Method: A liquid α-amylase detection reagent was prepared by combining 1.8 mM DMA-G7 (43) prepared according to Example 9, 38 units of α-glucosidase and 20 units of β-glucosidase in 1.0 mL of buffered solution comprising 50 mM PIPES, 50 mM NaCl, and 5.0 mM calcium chloride (pH 7.0). Amylase control serum (0.025 mL) containing 37 IU/L, 175 IU/L, and 313 IU/L, respectively, of α-amylase were added to the detection reagent, independently, and incubated at 37° C. The enzymatic action of α-amylase on the substrate compound in each of the mixtures liberated shorter chain chromogenic maltooligosaccharide compounds thereof (e.g., DMA-G2 to DMA-G4) which, in turn, was enzymatically acted upon by the α-glucosidase and β-glucosidaseto liberate the optically active form of the dimethyl acridinone chromogen (20). The rate of color change produced by the liberated chromogen in each of the mixtures was measured at 634 nm on a Cary 219 spectrophotometer (Varian Associates, Inc., Sonnyvale, Calif., U.S.A.) from between 1 and 9 minutes after each of the serum samples were added to the detection reagent (Table 2).
# α-amylase [7] = assay: Analytical test device for the detection of α-amylase, reflectance; assay type: biochemical; details: for Reactivity × 10^-2: linear regression of L(R) between 180 and 200 seconds, 630 nm
# Method: A sheet of Whatman 54 filter paper (Whatman, Inc., Clifton, N.J., U.S.A.) was immersed into a solution comprising the liquid α-amylase detection reagent prepared according to Example 10, 0.1% Triton X-100 (Sigma Chemical Co., St. Louis, Mo., U.S.A.) and 0.5% carboxycellulose, and dried.
# Analytical test devices were prepared by mounting 0.5 cm wide×1.0 cm long segment of the aforementioned impregnated filter paper onto and along the edge of one surface of 0.5 cm×8.125 cm polystyrene supports (Tricite®, Dow Chemical Co., Midland, Mich., U.S.A.) previously laminated with a 2 mm strip of Double Stick® double-faced adhesive tape (3M Company, St. Paul, Minn., U.S.A.).
# Three 30 μL aliquots of undiluted serum containing 39 IU/L, 78 IU/L, 117 IU/L, 157 IU/L, 235 IU/L, and 313 IU/L, respectively, of α-amylase were applied, independently, to a test device and the rate of color change produced by the liberated chromogen on each device was measured at 630 nm on a Seralyzer® reflectance photometer (Miles Inc., Elkhart, Ind., U.S.A.) from between 0 seconds and 240 seconds after the serum sample was added to each test device.
# T1 sequence (P00722 2-1024): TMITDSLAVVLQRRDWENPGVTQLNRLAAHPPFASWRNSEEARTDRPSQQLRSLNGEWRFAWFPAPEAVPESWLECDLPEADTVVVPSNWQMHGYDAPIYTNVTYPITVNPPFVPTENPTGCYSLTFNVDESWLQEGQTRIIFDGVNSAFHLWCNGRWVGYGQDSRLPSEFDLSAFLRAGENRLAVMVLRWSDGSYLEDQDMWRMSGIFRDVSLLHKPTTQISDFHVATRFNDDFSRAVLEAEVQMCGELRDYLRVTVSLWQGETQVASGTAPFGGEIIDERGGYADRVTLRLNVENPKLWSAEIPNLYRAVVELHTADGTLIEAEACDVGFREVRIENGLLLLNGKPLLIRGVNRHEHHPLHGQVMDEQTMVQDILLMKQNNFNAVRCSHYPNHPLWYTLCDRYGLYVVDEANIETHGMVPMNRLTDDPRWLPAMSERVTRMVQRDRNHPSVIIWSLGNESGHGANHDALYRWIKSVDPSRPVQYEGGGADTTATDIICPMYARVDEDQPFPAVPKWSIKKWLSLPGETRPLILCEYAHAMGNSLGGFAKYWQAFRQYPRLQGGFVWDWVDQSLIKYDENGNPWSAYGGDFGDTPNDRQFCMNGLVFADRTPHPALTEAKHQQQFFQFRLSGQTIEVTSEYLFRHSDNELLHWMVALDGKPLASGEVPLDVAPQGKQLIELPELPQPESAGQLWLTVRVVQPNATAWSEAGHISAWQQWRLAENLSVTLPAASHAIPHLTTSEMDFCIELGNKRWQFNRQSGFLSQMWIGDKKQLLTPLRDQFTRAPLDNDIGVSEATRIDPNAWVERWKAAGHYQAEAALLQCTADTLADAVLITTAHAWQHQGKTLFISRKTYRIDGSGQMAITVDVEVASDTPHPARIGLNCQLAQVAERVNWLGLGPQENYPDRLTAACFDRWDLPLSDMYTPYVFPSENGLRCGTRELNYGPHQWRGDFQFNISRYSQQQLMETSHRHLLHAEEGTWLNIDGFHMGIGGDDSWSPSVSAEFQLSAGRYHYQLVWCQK
structure (smiles),measurement,setting,value
"CC1(C)C2=CC(=O)C=CC2=Nc2ccc(OP(=O)(O)O)cc21 [Compound 37, disodium-9,9-dimethyl-9H-acridin-2-one-7-phosphate]",Kcat,alkaline phosphatase,1.94×10^5 mol/min/mol of enzyme
same,Km,alkaline phosphatase,480 µM
"CC1(C)C2=CC(=O)C=CC2=Nc2ccc(O[C@@H]3O[C@H](CO)[C@H](O)[C@H](O)[C@H]3O)cc21 [Compound 32, 7-β-D-galactopyranosyloxy-9,9-dimethyl-9H-acridin-2-one]",rate at which the enzyme cleaves the substrate (Kcat),β-D-galactosidase [1],1.32×10^4 mol. min.^-1 /mol. active site
same,Km,β-D-galactosidase [1]; read-out: binding constant (Km),170 µM
same,change in absorbance between substrate and liberated chromogen anion,[2],196 nm
same,absorbance of the liberated chromogen anion,"[2]; after hydrolysis by β-D-galactosidase, phosphate buffered solution",634 nm
same,absorbance (λmax),[2],438 nm
same,extinction coefficient,"[2]; uncleaved substrate, at 438 nm, in M-1 cm-1 (unit assumed)","27,400"
same,solubility,[3]; phosphate buffered solution (pH 7.4),soluble
same,dose response of reflectance to β-D-galactosidase,β-D-galactosidase [4],linear dose response
"CC1(C)C2=CC(=O)C=CC2=Nc2ccc(O)cc21 [Compound 20, 7-hydroxy-9,9-dimethyl-9H-acridin-2-one, reference compound]",shift in the absorbance maximum on deprotonation,[2],176 nm
same,absorbance of the deprotonated anion,[2]; deprotonated chromogen,635 nm
same,extinction coefficient of the anion,"[2]; pH=10, in M-1 cm-1 (unit assumed)","53,100"
same,absorbance (λmax),[2],459 nm
same,solubility and stability,"[3]; aqueous, basic solutions",soluble and stable
same,phenolic pKa,[5],7.1
"CC1(C)C2=CC(=O)C=CC2=Nc2ccc(O[C@@H]3O[C@H](CO)[C@@H](O[C@H]4O[C@H](CO)[C@@H](O[C@H]5O[C@H](CO)[C@@H](O[C@H]6O[C@H](CO)[C@@H](O[C@H]7O[C@H](CO)[C@@H](O[C@H]8O[C@H](CO)[C@@H](O[C@H]9O[C@H](CO)[C@@H](O)[C@H](O)[C@H]9O)[C@H](O)[C@H]8O)[C@H](O)[C@H]7O)[C@H](O)[C@H]6O)[C@H](O)[C@H]5O)[C@H](O)[C@H]4O)[C@H](O)[C@H]3O)cc21 [DMA-G7, 7-β-maltoheptaosyloxy-9,9-dimethyl-acridin-2-one]",dose response to the α-amylase concentration,"α-amylase [6]; 37-313 IU/L, readings between 3 and 6 minutes",linear dose response
same,Absorbance (634 nm),"α-amylase [6]; 37 IU/L α-amylase, 1 minute",0.123
same,Absorbance (634 nm),"α-amylase [6]; 37 IU/L α-amylase, 2 minutes",0.129
same,Absorbance (634 nm),"α-amylase [6]; 37 IU/L α-amylase, 3 minutes",0.138
same,Absorbance (634 nm),"α-amylase [6]; 37 IU/L α-amylase, 4 minutes",0.148
same,Absorbance (634 nm),"α-amylase [6]; 37 IU/L α-amylase, 5 minutes",0.160
same,Absorbance (634 nm),"α-amylase [6]; 37 IU/L α-amylase, 6 minutes",0.172
same,Absorbance (634 nm),"α-amylase [6]; 37 IU/L α-amylase, 7 minutes",0.187
same,Absorbance (634 nm),"α-amylase [6]; 37 IU/L α-amylase, 8 minutes",0.202
same,Absorbance (634 nm),"α-amylase [6]; 37 IU/L α-amylase, 9 minutes",0.218
same,Absorbance/Minute,α-amylase [6]; 37 IU/L α-amylase,0.011
same,Absorbance (634 nm),"α-amylase [6]; 175 IU/L α-amylase, 1 minute",0.150
same,Absorbance (634 nm),"α-amylase [6]; 175 IU/L α-amylase, 2 minutes",0.178
same,Absorbance (634 nm),"α-amylase [6]; 175 IU/L α-amylase, 3 minutes",0.223
same,Absorbance (634 nm),"α-amylase [6]; 175 IU/L α-amylase, 4 minutes",0.279
same,Absorbance (634 nm),"α-amylase [6]; 175 IU/L α-amylase, 5 minutes",0.341
same,Absorbance (634 nm),"α-amylase [6]; 175 IU/L α-amylase, 6 minutes",0.409
same,Absorbance (634 nm),"α-amylase [6]; 175 IU/L α-amylase, 7 minutes",0.481
same,Absorbance (634 nm),"α-amylase [6]; 175 IU/L α-amylase, 8 minutes",0.555
same,Absorbance (634 nm),"α-amylase [6]; 175 IU/L α-amylase, 9 minutes",0.631
same,Absorbance/Minute,α-amylase [6]; 175 IU/L α-amylase,0.062
same,Absorbance (634 nm),"α-amylase [6]; 313 IU/L α-amylase, 1 minute",0.171
same,Absorbance (634 nm),"α-amylase [6]; 313 IU/L α-amylase, 2 minutes",0.212
same,Absorbance (634 nm),"α-amylase [6]; 313 IU/L α-amylase, 3 minutes",0.282
same,Absorbance (634 nm),"α-amylase [6]; 313 IU/L α-amylase, 4 minutes",0.372
same,Absorbance (634 nm),"α-amylase [6]; 313 IU/L α-amylase, 5 minutes",0.474
same,Absorbance (634 nm),"α-amylase [6]; 313 IU/L α-amylase, 6 minutes",0.585
same,Absorbance (634 nm),"α-amylase [6]; 313 IU/L α-amylase, 7 minutes",0.702
same,Absorbance (634 nm),"α-amylase [6]; 313 IU/L α-amylase, 8 minutes",0.823
same,Absorbance (634 nm),"α-amylase [6]; 313 IU/L α-amylase, 9 minutes",0.948
same,Absorbance/Minute,α-amylase [6]; 313 IU/L α-amylase,0.109
same,dose response to α-amylase,α-amylase [7]; 39-313 IU/L α-amylase in undiluted serum,linear dose response
same,Reactivity × 10^-2,α-amylase [7]; 39 IU/L α-amylase serum,0.384 × 10^-2 and 0.373 × 10^-2 and 0.359 × 10^-2
same,Reactivity × 10^-2,α-amylase [7]; 78 IU/L α-amylase serum,0.957 × 10^-2 and 0.941 × 10^-2 and 0.954 × 10^-2
same,Reactivity × 10^-2,α-amylase [7]; 117 IU/L α-amylase serum,1.450 × 10^-2 and 1.510 × 10^-2 and 1.430 × 10^-2
same,Reactivity × 10^-2,α-amylase [7]; 157 IU/L α-amylase serum,1.781 × 10^-2 and 1.999 × 10^-2 and 1.886 × 10^-2
same,Reactivity × 10^-2,α-amylase [7]; 235 IU/L α-amylase serum,2.560 × 10^-2 and 2.596 × 10^-2 and 2.610 × 10^-2
same,Reactivity × 10^-2,α-amylase [7]; 313 IU/L α-amylase serum,2.961 × 10^-2 and 2.989 × 10^-2 and 2.916 × 10^-2
